Laboratory results from ChEMBL document CHEMBL6078695, “Design, synthesis, and biological evaluations of 5-aryl-pyrazole-3-carboxamide derivatives as selective CB2 receptor agonists for the treatment of colitis” (Eur J Med Chem, 2025).
Calls of active or inactive are those of the source. The calls are words filed in the database; no cut-off is given here.

Columns and labels:
Cannabinoid receptor 2 [1] = target: T1, Cannabinoid receptor 2 (Homo sapiens, UniProt P34972); experiment: Antagonist activity at human CB2 receptor expressed in CHO-K1 cells co-transfected with human Galpha16 assessed as intracellular calcium flux; format: functional, cell-based
T1 sequence (P34972 whole entry): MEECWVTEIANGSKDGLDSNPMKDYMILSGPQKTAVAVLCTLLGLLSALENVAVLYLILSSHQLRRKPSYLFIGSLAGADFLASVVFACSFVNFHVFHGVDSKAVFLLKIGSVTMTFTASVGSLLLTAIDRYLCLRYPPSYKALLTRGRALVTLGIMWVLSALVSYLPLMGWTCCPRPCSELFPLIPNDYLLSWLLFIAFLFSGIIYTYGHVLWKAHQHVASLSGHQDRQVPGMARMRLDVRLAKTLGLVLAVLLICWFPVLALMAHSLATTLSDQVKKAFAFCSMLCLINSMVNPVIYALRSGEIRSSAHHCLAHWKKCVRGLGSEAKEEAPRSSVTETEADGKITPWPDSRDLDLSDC

Cannabinoid receptor 1 [2] = target: T2, Cannabinoid receptor 1 (Homo sapiens, UniProt P21554); experiment: Agonist activity at human CB1 receptor expressed in CHO-K1 cells co-transfected with human Galpha16 assessed as intracellular calcium flux; format: functional, cell-based
T2 sequence (P21554 whole entry): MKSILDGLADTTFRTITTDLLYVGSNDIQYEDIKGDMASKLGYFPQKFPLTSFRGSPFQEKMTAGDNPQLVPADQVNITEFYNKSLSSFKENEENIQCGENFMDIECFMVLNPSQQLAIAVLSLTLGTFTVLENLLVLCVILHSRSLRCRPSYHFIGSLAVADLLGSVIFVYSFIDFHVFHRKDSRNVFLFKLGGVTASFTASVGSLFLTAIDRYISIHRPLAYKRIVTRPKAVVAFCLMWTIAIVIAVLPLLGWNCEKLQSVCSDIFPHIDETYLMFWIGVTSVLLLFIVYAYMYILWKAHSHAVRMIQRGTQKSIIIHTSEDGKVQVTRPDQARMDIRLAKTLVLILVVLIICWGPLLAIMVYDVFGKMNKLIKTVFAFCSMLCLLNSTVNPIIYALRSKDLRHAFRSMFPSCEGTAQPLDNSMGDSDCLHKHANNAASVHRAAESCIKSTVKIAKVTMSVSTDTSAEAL

Cannabinoid receptor 2 [3] = target: T1, Cannabinoid receptor 2; experiment: Agonist activity at human CB2 receptor expressed in CHO-K1 cells co-transfected with human Galpha16 assessed as intracellular calcium flux; format: functional, cell-based
Cannabinoid receptor 1 [4] = target: T2, Cannabinoid receptor 1; experiment: Antagonist activity at human CB1 receptor expressed in CHO-K1 cells co-transfected with human Galpha16 assessed as intracellular calcium flux; format: functional, cell-based
Cannabinoid receptor 2 [5] = target: T1, Cannabinoid receptor 2; experiment: Agonist activity at human CB2 receptor expressed in CHO-K1 cells co-transfected with human Galpha16 assessed as intracellular calcium flux at 10 uM relative to control; format: functional, cell-based; conditions: filed as agonist
Cannabinoid receptor 2 [6] = target: T1, Cannabinoid receptor 2; experiment: Partial agonist activity at human CB2 receptor expressed in CHO-K1 cells co-transfected with human Galpha16 assessed as intracellular calcium flux at 10 uM; format: functional, cell-based
Cannabinoid receptor 2 [7] = target: T1, Cannabinoid receptor 2; experiment: Agonist activity at human CB2 receptor expressed in CHO-K1 cells co-transfected with human Galpha16 assessed as intracellular calcium flux at 10 uM; format: functional, cell-based
Cannabinoid receptor 1 [8] = target: T2, Cannabinoid receptor 1; experiment: Agonist activity at human CB1 receptor expressed in CHO-K1 cells co-transfected with human Galpha16 assessed as intracellular calcium flux at 10 uM relative to control; format: functional, cell-based; conditions: filed as agonist
Mus musculus [9] = experiment: Antiinflammatory activity against DSS-induced colitis C57/BL6 mouse model assessed as disruption of epithelial layer in colon at 10 to 30 mg/kg, po administered for 9 days by H and E staining based analysis; format: functional, organism-based; conditions: dose 10-30 mg/kg, time 9.0 day
Mus musculus [10] = experiment: Antiinflammatory activity against DSS-induced colitis C57/BL6 mouse model assessed as loss of goblet cells at 10 to 30 mg/kg, po administered for 9 days by H and E staining based analysis; format: functional, organism-based; conditions: dose 10-30 mg/kg, time 9.0 day
Mus musculus [11] = experiment: Antiinflammatory activity against DSS-induced colitis in po dosed C57/BL6 mouse model assessed as suppression of TNF-alpha expression administered for 9 days by ELISA analysis; format: functional, organism-based; conditions: dose 10-30 mg/kg, time 9.0 day
Mus musculus [12] = experiment: Antiinflammatory activity against DSS-induced colitis C57/BL6 mouse model assessed as reduction in disease activity index (DAI) score at 10 to 30 mg/kg, po administered for 9 days; format: functional, organism-based; conditions: dose 10-30 mg/kg, time 9.0 day
Cannabinoid receptor 2 [13] = target: T1, Cannabinoid receptor 2; experiment: Agonist activity at human CB2 receptor expressed in HEK293 cells assessed as forskolin-stimulated cAMP accumulation preincubated with compound for 10 mins followed by forskolin induction and measured after 2 hrs by HTRF analysis; format: functional, cell-based
Mus musculus [14] = experiment: Antiinflammatory activity against DSS-induced colitis in po dosed C57/BL6 mouse model assessed as suppression of IL-1beta expression administered for 9 days by ELISA analysis; format: functional, organism-based; conditions: dose 10-30 mg/kg, time 9.0 day
Mus musculus [15] = experiment: Antiinflammatory activity against DSS-induced colitis C57/BL6 mouse model assessed as delay in hematochezia development at 10 to 30 mg/kg, po administered for 9 days; format: functional, organism-based; conditions: dose 10-30 mg/kg, time 9.0 day
Mus musculus [16] = experiment: Antiinflammatory activity against DSS-induced colitis C57/BL6 mouse model assessed as reduction in body weight loss at 10 to 30 mg/kg, po administered for 9 days; format: functional, organism-based; conditions: dose 10-30 mg/kg, time 9.0 day
Mus musculus [17] = experiment: Antiinflammatory activity against DSS-induced colitis in po dosed C57/BL6 mouse model assessed as suppression of IL-6 expression administered for 9 days by ELISA analysis; format: functional, organism-based; conditions: dose 10-30 mg/kg, time 9.0 day
Cannabinoid receptor 2 [18] = target: T1, Cannabinoid receptor 2; experiment: Antagonist activity at human CB2 receptor expressed in CHO cells co-transfected with human Galpha16 assessed as receptor desensitization by measuring reduction in calcium response; format: functional, cell-based; conditions: filed as antagonist
Mus musculus [19] = experiment: Antiinflammatory activity against DSS-induced colitis C57/BL6 mouse model assessed as reduction in inflammatory infiltration at 10 to 30 mg/kg, po administered for 9 days by H and E staining based analysis; format: functional, organism-based; conditions: dose 10-30 mg/kg, time 9.0 day
Mus musculus [20] = experiment: Antiinflammatory activity against DSS-induced colitis C57/BL6 mouse model assessed as delay in diarrhoea development at 10 to 30 mg/kg, po administered for 9 days; format: functional, organism-based; conditions: dose 10-30 mg/kg, time 9.0 day
Cannabinoid receptor 2 [21] = target: T1, Cannabinoid receptor 2; experiment: Agonist activity at human CB2 receptor expressed in CHO cells assessed as reduction in ERK1/2 phosphorylation at 10 uM by Western blot analysis; format: functional, cell-based
Cannabinoid receptor 2 [22] = target: T1, Cannabinoid receptor 2; experiment: Antagonist activity at human CB2 receptor expressed in CHO cells co-transfected with human Galpha16 assessed as increase in intracellular calcium mobilization; format: functional, cell-based; conditions: filed as antagonist

| Structure (SMILES) | IC50 (Cannabinoid receptor 2 [1]) | EC50 (Cannabinoid receptor 1 [2]) | EC50 (Cannabinoid receptor 2 [3]) | IC50 (Cannabinoid receptor 1 [4]) | Emax (Cannabinoid receptor 2 [5]) | further results |
| --- | --- | --- | --- | --- | --- | --- |
| CCCCCn1nc(C(=O)NC(C)(C)CO)cc1-c1cc(Cl)cs1 | 0.0346 µM | > 100 µM | > 100 µM | > 100 µM | – | – |
| CCCCCn1nc(C(=O)NC(C)(C)CO)cc1-c1nccs1 | > 100 µM | > 100 µM | > 100 µM | > 100 µM | – | – |
| Cc1ccc(-n2nc(C(=O)NC(C)(C)CO)cc2-c2cccs2)cc1 | > 100 µM | > 100 µM | 1.04 µM | > 100 µM | 45% | Activity (Cannabinoid receptor 2 [6]; filed as partial agonist): Weak_effect |
| CCCCCn1nc(C(=O)NC(C)(C)CO)cc1-c1ccsc1 | > 100 µM | > 100 µM | 0.141 µM | > 100 µM | 50% | – |
| COc1ccc(-n2nc(C(=O)NC(C)(C)CO)cc2-c2cccs2)cc1 | > 100 µM | > 100 µM | > 100 µM | > 100 µM | – | Activity (Cannabinoid receptor 2 [6]): inactive |
| CCCCCn1nc(C(=O)NC(C)(C)CO)cc1-c1nccn1C | > 100 µM | > 100 µM | > 100 µM | > 100 µM | – | – |
| CCCCCn1nc(-c2cccn2CC)cc1C(=O)NC(C)(C)CO | – | > 100 µM | > 100 µM | > 100 µM | – | – |
| COCCn1nc(C(=O)NC(C)(C)CO)cc1-c1cccs1 | > 100 µM | > 100 µM | 0.128 µM | > 100 µM | 46% | Activity (Cannabinoid receptor 2 [7]; filed as agonist): Active |
| CCCCCn1nc(C(=O)NC(C)(C)CO)cc1-c1cccs1 | – | 0.593 µM | 0.0088 µM | > 100 µM | 95% | Emax (Cannabinoid receptor 1 [8]): 70% |
| CCCCn1nc(C(=O)NC(C)(C)CO)cc1-c1cccs1 | > 100 µM | > 100 µM | 0.0162 µM | > 100 µM | 90% | Activity (Mus musculus [9]): Active; Activity (Mus musculus [10]): Active; Activity (Mus musculus [11]): Dose-dependent-effect; Activity (Mus musculus [12]): Active; EC50 (Cannabinoid receptor 2 [13]): 0.0151 µM; Activity (Mus musculus [14]): Dose-dependent-effect; Activity (Mus musculus [15]): Active; Activity (Mus musculus [16]): Active; Activity (Mus musculus [17]): Dose-dependent-effect; Activity (Cannabinoid receptor 2 [18]): Active; Activity (Mus musculus [19]): Active; Activity (Mus musculus [20]): Active; Activity (Cannabinoid receptor 2 [21]): inactive; Activity (Cannabinoid receptor 2 [22]): Active |
| CCCCn1nc(C(=O)NC(C)(C)CO)cc1-c1cncs1 | > 100 µM | > 100 µM | > 100 µM | > 100 µM | – | Activity (Cannabinoid receptor 2 [7]): inactive |
| CCCCCn1nc(-c2cccn2C)cc1C(=O)NC(C)(C)CO | – | > 100 µM | > 100 µM | > 100 µM | – | – |
| CCCCCn1nc(C(=O)NC(C)(C)CO)cc1-c1ccc(Cl)s1 | 0.0322 µM | > 100 µM | > 100 µM | > 100 µM | – | – |
| CCCCCn1nc(C(=O)NC(C)(C)CO)cc1-c1sccc1Cl | > 100 µM | > 100 µM | 0.0215 µM | > 100 µM | 76% | – |
| CCCCCCn1nc(C(=O)NC(C)(C)CO)cc1-c1cccs1 | > 100 µM | > 100 µM | 0.0195 µM | > 100 µM | 72% | – |
